Test system: Colo205 colorectal cancer cell xenografts
Assay: Colo205 xenograft tumor volume, 2xCon4(C) (2.8 μg) and Avastin™ (10 μg) (Example 7)
Assay type: in vivo, female athymic nude mice (CD1 Nu/Nu)
Conditions: Avastin™ 10 μg IP twice per week; 2xCon4(C) 2.8 μg sc twice per week; day 14 to day 42
Experimental: Xenografts of Colo205 cells injected into female athymic nude mice were treated with 2xCon4(C) alone, Avastin™, or a combination of the two as described below.
Tumors were induced by injecting Colo205 cells subcutaneously into female athymic nude mice (CD1 Nu/Nu), 8-10 weeks old. All of the mice were obtained from Charles River Laboratories (Raleigh, N.C.). Cells were harvested from subconfluent cultures using trypsin/EDTA. The cells were greater than 95% viable by […] exclusion. 2×10^6 cells in 0.2 ml were injected subcutaneously into the right flank of each mouse.
On day 14 after injection the tumors averaged 250 mm^3, and the mice were divided at random into four groups of 10 mice each. Group 1 received IgG1 at a dose of 10 μg and Fc fragment control at a dose of 2.8 μg and served as a negative control. Group 2 received Avastin™ at a dose of 10 μg and Fc fragment control at 2.8 μg. Group 3 received 2xCon4(C) at a dose of 2.8 μg and human IgG1 at a dose of 10 μg. […]
The experiment was performed “blind” in accordance with the Cancer Pharmacology Blinded Study Guidelines. Tumors were measured and body weights were determined twice each week. Tumors were measured with an electronic digital caliper. Tumor volumes were calculated as the length×width×height measurements and expressed in mm^3.
The data were analyzed by repeated measures ANOVA for tumor volumes over time using STATVIEW v. […]

## Avastin™: recombinant humanized monoclonal antibody that binds directly to VEGF, sold by Genentech
  reduction / inhibition of tumor growth compared to the control: 18%

Source: patent US20090304694A1, “Ang2 and Vegf Inhibitor Combinations” (AMGEN INC., priority 2006, published 2009)
